Measured values as given in ChEMBL document CHEMBL3621061 (J Med Chem, 2015).
One block for each molecule: values may come before it.

Key:
[1] = Displacement of [3H]histamine from monkey recombinant histamine H4 receptor; set-up: species or system Macaca mulatta
[2] = Displacement of [3H]histamine from dog recombinant histamine H4 receptor; set-up: species or system Canis lupus familiaris
Histamine H4 receptor = molecular target: T1, Histamine H4 receptor (Cavia porcellus, UniProt Q91ZY3)
T1 sequence (Q91ZY3 whole entry): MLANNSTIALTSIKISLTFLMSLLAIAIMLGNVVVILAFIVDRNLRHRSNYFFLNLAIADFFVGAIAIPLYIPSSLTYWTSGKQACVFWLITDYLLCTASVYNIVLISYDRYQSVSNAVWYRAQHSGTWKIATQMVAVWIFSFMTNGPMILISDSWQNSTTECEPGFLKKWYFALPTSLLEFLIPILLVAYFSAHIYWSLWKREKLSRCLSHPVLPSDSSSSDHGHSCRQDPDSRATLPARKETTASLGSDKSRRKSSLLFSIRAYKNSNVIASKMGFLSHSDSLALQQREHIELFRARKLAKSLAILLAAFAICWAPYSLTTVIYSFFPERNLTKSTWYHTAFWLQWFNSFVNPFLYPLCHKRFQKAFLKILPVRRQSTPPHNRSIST

[3] = Displacement of [3H]histamine from monkey histamine H4 receptor expressed in HEK293T cells; type: cell-based, Macaca mulatta; settings: hek-293t
[4] = Displacement of [3H]histamine from dog histamine H4 receptor expressed in HEK293T cells; type: cell-based, Canis lupus familiaris; settings: hek-293t

- Ki [1]: 25 nM
- Ki [2]: > 10000 nM
SMILES: CC(C)c1cc(N2CC[C@@H](N)C2)nc(N)n1 [JNJ-39758979]

- Ki (Histamine H4 receptor): 6 nM
SMILES: NCCc1c[nH]cn1 [HISTAMINE]

SMILES: CN[C@@H]1CCN(c2cc(NCC3CC3)nc(N)n2)C1 [ADRIFORANT]
- pKi [3]: 7.81
- pKi [4]: 5.79
